In US20180230127A1 (PFIZER INC., priority 2015, published 2018):
Counter-ions that a name gives are not always drawn.

Target: T1, human IRAK4 kinase domain (aa 154-460) (Homo sapiens, UniProt Q9NWZ3)
T1 construct: human IRAK4 kinase domain (aa 154-460; GenBank ID AF445802)
T1 sequence (Q9NWZ3 154-460): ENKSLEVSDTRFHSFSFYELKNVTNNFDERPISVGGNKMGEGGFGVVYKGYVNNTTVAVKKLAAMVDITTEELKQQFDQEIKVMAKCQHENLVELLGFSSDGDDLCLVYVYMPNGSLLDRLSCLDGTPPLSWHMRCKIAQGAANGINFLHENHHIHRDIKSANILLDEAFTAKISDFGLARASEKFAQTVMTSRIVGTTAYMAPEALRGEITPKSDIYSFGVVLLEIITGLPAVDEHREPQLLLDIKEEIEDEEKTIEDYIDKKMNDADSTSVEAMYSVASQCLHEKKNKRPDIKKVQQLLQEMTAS
Test: IRAK4 Enzymatic DELFIA Assay
Assay type: biochemical
Conditions: 0.6 mM ATP (KM); 114 pM IRAK4 kinase domain; 200 nM substrate; 5% DMSO
Protocol: IRAK4 Enzymatic DELFIA Assay.
This is an in vitro assay to measure IRAK4 enzymatic activity utilizing the DELFIA (Dissociation-Enhanced Lanthanide Fluorescent Immunoassay, Perkin-Elmer) platform, with the human IRAK4 kinase domain (aa 154-460) construct to characterize IRAK4 inhibitor and control compounds at 0.6 mM ATP (KM). The final amount of enzyme in the assay is 114 pM IRAK4 kinase domain, final concentration of substrate is 200 nM, and final concentration of DMSO is 5%.
The test compound was solubilized in DMSO to a stock concentration of 30 mM. The dose response plates were prepared with a 2 mM primary compound concentration, and then diluted in DMSO in a four-fold series for a total of 10 data points. Compounds were prepared as a 20-fold multiple of the final in-assay concentration
To begin the assay, 45 μL of reaction mixture containing 20 mM HEPES pH=7.5, 5 mM MgCl2, 0.0025% Brij-35, […], 228 pM phosphorylated recombinant human IRAK4 kinase domain (aa 154-460; GenBank ID AF445802) were aliquoted into Ultra-Clear Polypropylene, 96-well, U-Bottom Plates (Corning Life Sciences). 5 μL of test compound from the dose-response plate was added to the reaction mixture and incubated for 15 minutes at room temperature. Then 50 μL of 20 mM HEPES pH=7.5, 5 mM MgCl2, 0.0025% Brij-35, 600 μM ATP, and 400 nM ERM-biotinylated peptide (AGAGRDKYKTLRQIR) were added to start the reaction. The reaction was incubated for 90 minutes at room temperature and stopped by the addition of 25 μL 0.5M EDTA.
100 μL of the reaction mixture was transferred to a streptavidin coated detection plate (EvenCoat Streptavidin Coated Plates, 96-Well, R&D Systems) and incubated for 30 minutes at room temperature. The plates were washed 4 times with 100 μL per well of PBS containing 0.05% Tween-20. Plates were then incubated with 50 μL per well of antibody cocktail of Anti-pERM antibody (Cell Signaling Technology) diluted 1:5000, plus Anti-Rabbit IgG EuN1 at 0.242 μg/ml (Perkin-Elmer Life Sciences) in a solution of 10 mM MOPS pH=7.5, 150 mM NaCl, 0.05% Tween-20, 0.02% NaN3, 1% BSA, 0.1% Gelatin for 45 minutes. The plates were washed 4× with 100 μL per well of PBS containing 0.05% Tween-20. Then 100 μL per well of DELFIA Enhancement Solution were added to the plate and then read on an EnVision Model 2103 using a 340 nm excitation wavelength and a 665 nm emission detection.

| Compound | IC50 |
| --- | --- |
| CC(C)Oc1cc2c(O[C@H]3CNCC[C@@H]3C)nccc2cc1C(N)=O [Example 70, 1-{[(3R,4S)-4-methylpiperidin-3-yl]oxy}-7-(propan-2-yloxy)isoquinoline-6-carboxamide] | 1250 nM |
| CC(C)Oc1cc2c(O[C@@H]3CC[C@H](C)NC3)ccnc2cc1C(N)=O [Example 59, 4-{[(3R,6S)-6-methylpiperidin-3-yl]oxy}-6-(propan-2-yloxy)quinoline-7-carboxamide] | 919 nM |
| CC(C)Oc1cc2c(O[C@H]3CCNC3)nccc2cc1C(N)=O [Example 79, 7-(propan-2-yloxy)-1-[(3S)-pyrrolidin-3-yloxy]isoquinoline-6-carboxamide] | 1470 nM |
| CC(C)Oc1cc2c(O[C@@H]3CCCN(C(=O)C(C)C#N)C3)ccnc2cc1C(N)=O (mixture of isomers) [Example 34, 4-{[(3R)-1-(2-cyanopropanoyl)piperidin-3-yl]oxy}-6-(propan-2-yloxy)quinoline-7-carboxamide] | 926 nM |
| CC(C)Oc1cc2c(O[C@H]3CNCC[C@@H]3C)ccnc2cc1C(N)=O [Example 74, 4-{[(3R,4S)-4-methylpiperidin-3-yl]oxy}-6-(propan-2-yloxy)quinoline-7-carboxamide] | 2800 nM |
| CC(C)Oc1cc2c(O[C@H]3CNCC[C@@H]3C)ccnc2cc1C(N)=O [Example 78, 4-{[(3R,4S)-4-methylpiperidin-3-yl]oxy}-6-(propan-2-yloxy)quinoline-7-carboxamide] | 3040 nM |
| CC(C)Oc1cc2c(O[C@@H]3CCCN(C(=O)C4(CN)CC4)C3)ccnc2cc1C(N)=O [Example 15, 4-{[(3R)-1-{[1-(aminomethyl)cyclopropyl]carbonyl}piperidin-3-yl]oxy}-6-(propan-2-yloxy)quinoline-7-carboxamide formate] | 999 nM |
| CC(O)CN1CCC(Oc2nccc3cc(C(N)=O)c(OC(C)C)cc23)CC1 (stereo not drawn) [Example 41, 1-{f[1-(2-hydroxypropyl)piperidin-4-yl]oxy}-7-(propan-2-yloxy)isoquinoline-6-carboxamide] | 883 nM |
| CC[C@H](C)Oc1cc2c(O[C@@H]3CCCNC3)ccnc2cc1C(N)=O [Example 72, 6-[(2S)-butan-2-yloxy]-4-[(3R)-piperidin-3-yloxy]quinoline-7-carboxamide] | 1100 nM |
| CC(C)Oc1cc2c(O[C@H]3CCNC3)ccnc2cc1C(N)=O [Example 26, 6-(propan-2-yloxy)-4-[(3S)-pyrrolidin-3-yloxy]quinoline-7-carboxamide formate] | 950 nM |
| CC(C)Oc1cc2c(O[C@@H]3CCCN(C(=O)[C@H](C)O)C3)ccnc2cc1C(N)=O [Example 13, 4-({(3R)-1-[(2S)-2-hydroxypropanoyljpiperidin-3-yl}oxy)-6-(propan-2-yloxy)quinoline-7-carboxamide formate] | 751 nM |
| CC(C)COc1cc2c(O[C@@H]3CCCNC3)ccnc2cc1C(N)=O [Example 76, 6-(2-methylpropoxy)-4-[(3R)-piperidin-3-yloxy]quinoline-7-carboxamide] | 2280 nM |

Now those with a lower IC50, led by results:

| IC50 | Compound |
| --- | --- |
| 266 nM | CC(C)Oc1cc2c(O[C@@H]3CCCN(C(=O)CCC#N)C3)ccnc2cc1C(N)=O [Example 35] |
| 254 nM | CC(C)Oc1cc2c(OC3CCCN(S(C)(=O)=O)C3)ccnc2cc1C(N)=O (stereo not drawn) [Example 45, 4-{[1-(methylsulfonyl)piperidin-3-yl]oxy}-6-(propan-2-yloxy)quinoline-7-carboxamide] |
| 82 nM | CC(C)Oc1cc2c(O[C@@H]3CCN(C(=O)CC#N)C3)ccnc2cc1C(N)=O [Example 40, 4-{[(3R)-1-(cyanoacetyl)pyrrolidin-3-yl]oxy}-6-(propan-2-yloxy)quinoline-7-carboxamide] |
| 399 nM | CC(=O)N1CCCC(Oc2ccnc3cc(C(N)=O)c(OC(C)C)cc23)C1 (stereo not drawn) [Example 43, 4-[(1-acetylpiperidin-3-yl)oxy]-6-(propan-2-yloxy)quinoline-7-carboxamide] |
| 135 nM | CC(C)Oc1cc2c(O[C@@H]3CCCNC3)ccnc2cc1C(N)=O [Example 58, (R)-4-(piperidin-3-yloxy)-6-(propan-2-yloxy)quinoline-7-carboxamide hydrochloride] |
| 514 nM | CC(C)Oc1cc2c(OC3CCN(C(=O)CC#N)CC3)nccc2cc1C(N)=O [Example 50, 1-{[1-(cyanoacetyl)piperidin-4-yl]oxy}-7-(propan-2-yloxy)isoquinoline-6-carboxamide] |
| 36 nM | CC(C)Oc1cc2c(O[C@@H]3CCCNC3)cccc2cc1C(N)=O [Example 69, (R)-3-isopropoxy-5-(piperidin-3-yloxy)-2-naphthamide trifluoroacetate] |
| 28 nM | COc1cc2c(O[C@@H]3CCCN(C(=O)CC#N)C3)ccnc2cc1C(N)=O [Example 30, (R)-4-((1-(2-cyanoacetyl)piperidin-3-yl)oxy)-6-methoxyquinoline-7-carboxamide] |
| 288 nM | Cc1cnc(O[C@@H]2CCCNC2)c2cc(OC(C)C)c(C(N)=O)cc12 [Example 56, 4-methyl-1-[(3R)-piperidin-3-yloxy]-7-(propan-2-yloxy)isoquinoline-6-carboxamide hydrochloride] |
| 53 nM | CC(C)Oc1cc2c(O[C@H]3CCN(C(=O)CC#N)C3)nccc2cc1C(N)=O [Example 1, 1-{[(3S)-1-(cyanoacetyl)pyrrolidin-3-yl]oxy}-7-(propan-2-yloxy)isoquinoline-6-carboxamide formate] |
| 626 nM | CC(C)Oc1cc2c(O[C@@H]3CCCN(C(=O)C(C)(N)CO)C3)ccnc2cc1C(N)=O (mixture of isomers) [Example 12, Racemic-4-{[(3R)-1-(2-amino-3-hydroxy-2-methylpropanoyl)piperidin-3-yl]oxy}-6-(propan-2-yloxy)quinoline-7-carboxamide formate] |
| 43 nM | CC(C)Oc1cc2c(O[C@@H]3CCCNC3)nccc2cc1C(N)=O [Example 53, 1-[(3R)-piperidin-3-yloxy]-7-(propan-2-yloxy)isoquinoline-6-carboxamide hydrochloride] |
| 39 nM | CC(C)Oc1cc2c(O[C@@H]3CCNC[C@H]3F)nccc2cc1C(N)=O [Example 19, 1-{[(3R,4R)-3-fluoropiperidin-4-yl]oxy}-7-(propan-2-yloxy)isoquinoline-6-carboxamide] |
| 602 nM | CC(C)Oc1cc2c(OC3CCNC3=O)nccc2cc1C(N)=O (stereo not drawn) [Example 21, 1-[(2-oxopyrrolidin-3-yl)oxy]-7-(propan-2-yloxy)isoquinoline-6-carboxamide] |
| 419 nM | CCOc1cc2c(O[C@@H]3CCCNC3)ccnc2cc1C(N)=O [Example 65, (R)-6-ethoxy-4-(piperidin-3-yloxy)quinoline-7-carboxamide hydrochloride] |
| 642 nM | CC(C)Oc1cc2c(OC3CCNC3=O)ccnc2cc1C(N)=O (stereo not drawn) [Example 27, 4-[(2-oxopyrrolidin-3-yl)oxy]-6-(propan-2-yloxy)quinoline-7-carboxamide] |
| 388 nM | Cc1cc(O[C@@H]2CCCN(C(=O)CO)C2)c2cc(OC(C)C)c(C(N)=O)cc2n1 [Example 42, 4-{[(3R)-1-(hydroxyacetyl)piperidin-3-yl]oxy}-2-methyl-6-(propan-2-yloxy)quinoline-7-carboxamide] |
| 591 nM | CC(C)Oc1cc2c(O[C@@H]3CCCNC3)ncc(Br)c2cc1C(N)=O [Example 54, 4-bromo-1-[(3R)-piperidin-3-yloxy]-7-(propan-2-yloxy)isoquinoline-6-carboxamide hydrochloride] |
